The source of these data is US10596166B2, “Combination composition comprising huperzine” (priority 2015, dated 2020).

The subject of assay [1] is TH positive dopaminergic neurons injured with MPP+. In words: MPP+ toxicity on TH positive dopaminergic neurons of primary mesencephalic culture. The format is cell-based, rat. To be noted: MPP+ 4 μM, 48 h. The protocol:
Rat dopaminergic neurons were cultured as described by Schinelli et al., J Neurochem. 1988 June; 50(6):1900-7 and Visanji et al., 2008 [previously cited].
Briefly, the midbrains obtained from 15-days old rat embryos (Janvier Labs, France) were dissected under a microscope. The embryonic midbrains were removed and placed in ice-cold medium of Leibovitz (L15, Pan Biotech) containing 2% of Penicillin-Streptomycin (PS, Pan Biotech) and 1% of bovine serum albumin (BSA, Pan Biotech). The ventral portion of the mesencephalic flexure, a region of the developing brain rich in dopaminergic neurons, was used for the cell preparations.
The midbrains were dissociated by trypsinisation for 20 min at 37° C. (Trypsin 0.05% EDTA 0.02%, PanBiotech). The reaction was stopped by the addition of Dulbecco's modified Eagle's medium (DMEM, PanBiotech) containing DNAase I grade II (0.1 mg/ml, PanBiotech) and 10% of foetal calf serum (FCS, Gibco). Cells were then mechanically dissociated by 3 passages through a 10 ml pipette. Cells were then centrifuged at 180×g for 10 min at +4° C. on a layer of BSA (3.5%) in L15 medium. The supernatant was discarded and the cell pellets were re-suspended in a defined culture medium consisting of Neurobasal (Invitrogen) supplemented with B27 (2%, Invitrogen, Batch: 1589889), L-glutamine (2 mM, PanBiotech) and 2% of PS solution and 10 ng/ml of Brain-derived neurotrophic factor (BDNF, PanBiotech) and 1 ng/ml of Glial-Derived Neurotrophic Factor (GDNF, PanBiotech). Viable cells were counted in a Neubauer cytometer using the trypan blue exclusion test. The cells were seeded at a density of 40 000 cells/well in 96 well-plates pre-coated with poly-L-lysine (Corning Biocoat) and maintained in a humidified incubator at 37° C. in 5% CO2/95% air atmosphere. Half of the medium was changed every 2 days with fresh medium.
On day 6 of culture, the medium was removed and fresh medium was added, without or with MPP^+ (Sigma) at 4 μM diluted in control medium, 6 wells per condition were assessed.
On day 6 of culture, NSP01-001-E001 (2.5, 5, 50, 500 ng/ml, 2.5, 5, 25, 33.3 μg/ml) were solved or diluted in culture medium and then pre-incubated with primary mesencephalic neurons for 1 hour before the MPP^+ application. MPP^+ solution was added to a final concentration of 4 μM diluted in control medium.
After 48 hours intoxication, the cells were then fixed by a solution of 4% paraformaldehyde (PFA, Sigma) in PBS (PAN), pH=7.3 for 20 min at room temperature. The cells were washed again twice in PBS, and then were permeabilized and non-specific sites were blocked with a solution of PBS containing 0.1% of saponin (Sigma) and 1% FCS for 15 min at room temperature. Then, cells were incubated with Monoclonal Anti-Tyrosine Hydroxylase (TH, Sigma) antibody produced in mouse at dilution of 1/10000 in PBS containing 1% FCS, 0.1% saponin, for 2 h at room temperature.
The immunolabeled cultures were automatically examined with ImageXpress (Molecular Devices) equipped with a LED at ×10 magnification. For each condition (6 culture wells), 20 automatically fields per well (representing ˜80% of the total surface of the well) were analyzed. The total number of TH neurons was automatically analyzed using MetaXpress software (Molecular Devices). Data were expressed in percentage of control conditions (no intoxication, no MPP^+=100%) in order to express the MPP^+ injury. All values were expressed as mean±SEM (s.e. mean) of the 6 wells. Graphs and statistical analyses were performed on the different conditions (ANOVA followed by Dunnett's or PLSD Fisher's test when allowed, using GraphPad Prism software).
The protocol used in these assays is the same as described in example 4.
HA (1, 10, 100 nM, 1, 10, 100 μM), CA (5, 50, 500 pM, 5, 50, 500 nM, 1 μM), FA (100 pM, 1, 10, 100 nM, 1, 10, 100 μM and 1 mM) and mixtures thereof were solved or diluted in culture medium and then pre-incubated with primary mesencephalic neurons for 1 hour before the MPP^+ application. […]

In assay [2] the test system is Acetylcholinesterase (AChE). The protocol:
Test compounds alone or in association in mixture were solved at different concentrations in medium and then pre-incubated with kit of measure AchE (Promega, France).
Test compounds alone or in association in the NSP01-001-E001 prepared according to example 4 were solved at different concentrations in medium and then pre-incubated with kit of measure AchE (Promega, France).
Kit achetylcholinesterase (Abcam ref ab138871) was used. […] A 10-minutes incubation time was applied. The absorbance was assessed at 410 nm.
The activity of the AchE was evaluated versus an AchE activity standard curve.
Data were expressed in percentage of control conditions (no compound=100%). All values were expressed as mean+/−SEM (s.e.mean) (n=6 wells per condition per culture). Graphs and statistical analyses on the different conditions (ANOVA followed by PLSD Fisher's test when allowed, were performed using GraphPad Prism software version 5.0).

In assay [3] the test system is Alzheimer's disease patients. To be noted: particularly at a daily dose of 300-500 μg; cited from earlier work.

Where two headings read alike, the source gives them in different places. Where only a bound is given, the exact number is not on record here.

Consider `O=C(O)/C=C/c1ccc(O)c(O)c1` [CA, caffeic acid], for which, in assay [1] (5 nM up to 1 μM), the “TH positive neuron survival” value was “large and significant protective effect”. In assay [2] (50 pM), the “inhibition of AChE” value was around 8%.
In the case of `COc1cc(/C=C/C(=O)O)ccc1O` [FA, ferulic acid], the “concentration of maximal effect (bell shape curve)” value in assay [1] turned out to be 10 µM. The “TH positive neuron survival” value was “inactive” in assay [1] (100 pM up to 100 nM) and “significant protective effect” in assay [1] (from 1 μM to 1 mM). Moreover, the “inhibition of AChE” value in assay [2] (100 pM) is on record as around 8%.
Take `C/C=C1\[C@H]2C=C(C)C[C@]1(N)c1ccc(=O)[nH]c1C2` [HA, huperzine A, reference compound]: the tolerability and benefit entry in assay [3] is “well-tolerated and beneficial”. Also, the “TH positive neuron survival” value in assay [1] (1 nM) was “inactive”; in assay [1] (100 nM), above 90%; in assay [1] (100 μM (in some well toxicity occurred)), “did not show some protective effect”; in assay [1] (from 10 nM up to 10 μM) it was “large and significant protective effect”.
